Experimental data taken from paper PMC10938439, “C-3 Steroidal Hemiesters as Inhibitors of 17β-Hydroxysteroid Dehydrogenase Type 10” (ACS Omega, 2024).

How the values were obtained:
17β-HSD10 = molecular target: T1, 17β-HSD10 (Homo sapiens, UniProt Q99714); experiment: Inhibition type determination with respect to substrate 17β-estradiol (Hanes–Woolf plot); format: biochemical; details: compound at 3, 6 and 9 μM, 17β-estradiol 12.5–75 μM, NAD+ 500 μM
T1 construct: inferred from Ni-NTA purification with imidazole elution; made in house; host or cells: E. coli BL21 (DE3)
T1 sequence (Q99714 1-261): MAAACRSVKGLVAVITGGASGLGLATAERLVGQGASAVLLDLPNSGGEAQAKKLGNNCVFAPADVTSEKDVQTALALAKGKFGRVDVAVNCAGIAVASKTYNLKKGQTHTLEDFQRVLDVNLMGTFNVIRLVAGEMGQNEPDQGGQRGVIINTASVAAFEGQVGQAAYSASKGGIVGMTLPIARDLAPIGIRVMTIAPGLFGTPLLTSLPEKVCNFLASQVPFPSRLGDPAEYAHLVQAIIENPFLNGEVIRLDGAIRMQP
Method: The uninhibited enzymatic reaction (0 μM 23) was compared with the enzymatic reaction at three concentrations of compound 23 (3, 6, and 9 μM) using 17β-estradiol as the substrate. […] Such inhibitor binds the enzyme preventing the formation of the enzyme–substrate complex. […] This hypothesis was confirmed by the kinetic experiment. The obtained data were linearized by using Hanes–Woolf plot (Figure 2).
The type of inhibition of compound 23 was determined with respect to the substrate 17β-estradiol. The inhibitor was determined at three different concentrations (3, 6, and 9 μM) in combination with different concentrations of 17β-estradiol (12.5–75 μM) and a saturated NAD^+ concentration (500 μM). As vehicle control, DMSO was used. The obtained data were analyzed using GraphPad Prism 8.4.3 (GraphPad Software Inc.). All measurements were performed in triplicate.

HEK-293 cells = experiment: CellTiter-Glo luminescent cell viability assay; format: cell-based; details: HEK-293, 1, 10 and 20 μM
Method: Finally, because the strongest inhibitor identified in vitro compound 23 has a favorable permeability coefficient, its potency to inhibit 17β-HSD10 also at the cellular level was determined. First, it was necessary to exclude the possibility that higher concentrations of compound 23 could be unfavorable to cells. The effects of compound 23 on the cellular viability and cytotoxicity of this compound (1, 10, and 20 μM) were determined using CellTiter-Glo Viability Assay and CellTox Green Assay, respectively, on HEK-293 cell line.
HEK-293 cells in DMEM (Capricorn) were supplemented with fetal bovine serum (10%, Gibco), L-glutamine (2 mM, Lonza), and nonessential amino acid additives (Gibco). Cells were maintained at 37 °C under a humidified atmosphere of 5% CO2. Compound 23 was tested on the HEK-293 cell line on cell viability using CellTox Green (G8741, Promega) and the CellTiter-Glo 2.0 kit (G9241, Promega), respectively, to establish their cytotoxic effect. Using a Tecan Spark 10 M instrument, the measurements were performed as end point methods in the multiplex. For multiplex measurement, 7500 cells were seeded per well in 50 μL of culture media and cultured for 24 h before the addition of selected compounds. […] Next, the CellTiter-Glo Luminescent Cell Viability Assay with an integration time of 500 ms was determined.

[1] = molecular target: T2, 17β-HSD10 overexpressed in HEK-293 (HEK-293-HSD10 cell line) (Homo sapiens, UniProt Q99714); experiment: Fluorogenic (−)–CHANA assay for cellular inhibition of 17β-HSD10; format: cell-based; details: HEK-293-HSD10, (−)–CHANA probe
T2 construct: expressed in transfected cells; host or cells: HEK-293 (HEK-293-HSD10)
T2 sequence (Q99714 1-261): T1 sequence (Q99714 1-261)
Method: Identical concentrations of compound 23 were used for fluorogenic cellular assay using a special probe (−)–CHANA as a substrate for 17β-HSD10 overexpressed in HEK-293 (HEK-293-HSD10 cell line).[15] […] The exact IC50 value at the cellular level was not possible to determine because of some method interferences, as well as its unknown cytotoxic characteristics. Higher IC50 (>20 μM) is in agreement with the high concentration of 17β-HSD10 in the model cell line.[15]
A previously published cell line with overexpressed 17β-HSD10 (HEK-293-HSD10)[15] was used to measure 17β-HSD10 inhibition in the cellular environment. For this purpose, the (−)–CHANA fluorogenic probe was used. The cells (density 1 × 10^4 cells per well) were seeded in DMEM (200 μL) without phenol red (Gibco). […] The changes in fluorescent intensities were measured immediately after (-)-CHANA addition and 2 h later. The fluorescence intensities of the CHANK product were taken by using the TECAN SPARK 10 M instrument (Ex/Em = 380/525 nm). The residual 17β-HSD10 activity was calculated as ΔF between 2 and 0 h after (-)-CHANA treatment, and the data were normalized between nontreated HEK-293-HSD10 and native, nontransfected HEK-293 controls (using relative response ratio). […]

Caco-2 cells = test system: Caco-2 cells; set-up: method as in PMID 30296546; details: cited from earlier work
[2] = set-up: method as in PMID 30296546; details: cited from earlier work
[3] = set-up: method as in PMID 30296546; details: cited from earlier work; remark: listed apart in the source

With `C[C@@]12CCC[C@H]1[C@@H]1CC=C3C[C@@H](OC(=O)CCCCC(=O)O)CC[C@]3(C)[C@H]1CC2` [Compound 23, Androst-5-en-3β-yl Hemiadipate] the type of inhibition (17β-HSD10) was “competitive”, the “cellular viability (CellTiter-Glo)” value (HEK-293 cells) was “does not influence HEK-293 viability” and the inhibition at 25 µM ([1]; HEK293, highest concentration 25 μM, read-out: inhibition of 17β-HSD10 activity in cells) was roughly 50%. For the same compound, the IC50 ([1]; exact value not determinable, read-out: IC50 at the cellular level) was greater than 20 µM, the “Caco-2 cell permeability (50 μM) Papp” value (Caco-2 cells) was 3.1 × 10^–6 cm/s and the “rat plasma stability, % remaining after 8 h” value [2] was 32%. For the same compound, the “human plasma stability, % remaining after 8 h” value [3] was 100%.
